Measured values published in BindingDB's records for doi:10.1016/s0960-894x(99)00237-1 (Warner-Lambert, 1999).

What was measured:
[1] = target: T1, Human immunodeficiency virus type 1 protease (Human immunodeficiency virus 1, UniProt Q72874); assay: In vitro binding affinity against HIV protease at pH 6.2.
[2] = target: T1, Human immunodeficiency virus type 1 protease; assay: Binding affinity towards HIV protease was determined
[3] = target: T1, Human immunodeficiency virus type 1 protease; assay: ChEBML_157707; conditions: pH 6.2
Experimental: In vitro binding affinity against HIV protease at pH 6.2 was determined

Molecule `Cc1cc(SC2C(=O)CC(CCc3ccc(O)cc3)(C(C)C)OC2=O)c(C(C)(C)C)cc1N(C)C` (configuration not stated) [3-(2-tert-Butyl-4-dimethylamino-5-methyl-phenylsulfanyl)-4-hydroxy-6-[2-(4-hydroxy-phenyl)-ethyl]-6-isopropyl-5,6-dihydro-pyran-2-one] has an IC50 [1] of 11 nM.
For `Cc1cc(SC2C(=O)CC(CCc3ccccc3)(c3ccccc3)OC2=O)c(C(C)(C)C)cc1N` (configuration not stated) [3-(4-Amino-2-tert-butyl-5-methyl-phenylsulfanyl)-4-hydroxy-6-phenethyl-6-phenyl-5,6-dihydro-pyran-2-one], the IC50 [1] was 11 nM.
In the case of `Cc1cc(SC2C(=O)C[C@@](CCc3ccc(O)cc3)(C(C)C)OC2=O)c(C(C)(C)C)cc1N` (stereo partly drawn) [(6S)-3-[(4-amino-2-tert-butyl-5-methylphenyl)sulfanyl]-4-hydroxy-6-[2-(4-hydroxyphenyl)ethyl]-6-(propan-2-yl)-5,6-dihydro-2H-pyran-2-one], the Ki [2] is reported as 0.07 nM and the Ki [3] is reported as 0.07 nM.
In the case of `Cc1cc(SC2C(=O)CC(CCc3ccc(O)cc3)(C(C)C)OC2=O)c(C(C)(C)C)cc1NC(=O)c1ccccc1` (configuration not stated) [N-(5-tert-Butyl-4-{4-hydroxy-6-[2-(4-hydroxy-phenyl)-ethyl]-6-isopropyl-2-oxo-5,6-dihydro-2H-pyran-3-ylsulfanyl}-2-methyl-phenyl)-benzamide], the IC50 [1] is reported as 13 nM.
With `Cc1cc(SC2C(=O)CC(CCc3ccc(O)cc3)(C(C)C)OC2=O)c(C(C)(C)C)cc1NC(=O)c1ccncc1` (configuration not stated) [N-(5-tert-Butyl-4-{4-hydroxy-6-[2-(4-hydroxy-phenyl)-ethyl]-6-isopropyl-2-oxo-5,6-dihydro-2H-pyran-3-ylsulfanyl}-2-methyl-phenyl)-isonicotinamide] the IC50 [1] was 5.1 nM.
Molecule `Cc1cc(SC2C(=O)CC(CCc3ccc(O)cc3)(C(C)C)OC2=O)c(C(C)(C)C)cc1NC(=O)c1cccnc1` (configuration not stated) [N-(5-tert-Butyl-4-{4-hydroxy-6-[2-(4-hydroxy-phenyl)-ethyl]-6-isopropyl-2-oxo-5,6-dihydro-2H-pyran-3-ylsulfanyl}-2-methyl-phenyl)-nicotinamide] has an IC50 [1] of 5.1 nM.
